Experiments:
HPV16 E7 protein = molecular target: T1, HPV16 E7 protein (Human papillomavirus type 16, UniProt P03129); format: cell-based; details: CaSki cells; for % Dad: adjusted degradation, CHX steady state set to 100% degradation
T1 construct: endogenous in cells; host or cells: CaSki cells (HPV16-positive cervical carcinoma)
Protocol: For intracellular antibody labeling, 0.5×10^6 cells are washed once with 1 ml ice-cold PBS. Cells are centrifuged at 350×g for 5 minutes at 4° C. and then fixed in 1% paraformaldehyde (1 ml/10^6 cells) for 20 minutes at 4° C. Cells are washed with 1 ml ice-cold PBS and centrifuged at 350×g for 5 minutes at 4° C. To permeabilize cells, 100% ice-cold methanol (1 ml/10^6 cells) is added to the cells and incubated for 20 minutes at 4° C. followed by centrifugation at 350×g for 5 minutes at 4° C. Cells are washed with 1 ml ice-cold PBS, centrifuged at 350×g for 5 minutes at 4° C. and resuspended in 0.1% saponin+2% FBS in PBS (ice-cold). Cells are left for 20-30 minutes at room temperature to reduce the background signal and then centrifuged at 350×g for 5 minutes at 4° C. The primary antibody (mAb_HPV16E7-1 (VS13004); concentration 1 μg/μl) is diluted in 0.1% saponin+2% FBS (dilution 0.25 μg/50 μl of incubation buffer per 1×10^6 cells (5 ng/μl)). Cells are incubated with primary antibody for 30 minutes at room temperature, washed with 0.1% saponin+2% FBS and centrifuged at 350×g for 5 minutes at 4° C. The secondary antibody (FITC conjugated goat anti-mouse IgG1-IgM, BD, cat. #555988) is diluted in 0.1% saponin+2% FBS (dilution 1:50). Cells are incubated with secondary antibody for 30 minutes at room temperature, washed once with 0.1% saponin+2% FBS, once with PBS and centrifuged at 350×g for 5 minutes at 4° C.
Cells are resuspended in 700 μl PBS prior to CF analysis with a Beckman Coulter FC 500 MPL, (excitation laser 488 nm). Data analysis is done using the Beckman Coulter software packages MXP for acquisition and CXP for data analysis which includes MFI calculation. Detection of HPV-E7 protein expression is based on morphology back-gating of FL1 histogram (logarithmic scale) with gating for dot plot FS (Forward Scatter) log/SS (Sideward Scatter) log and gating for histograms SS log.
In order to define the level of E7 protein expression and to study the extent of E7 protein steady state level reduction in E7 expressing cells in the presence of various compounds, FC analysis is implemented using the intracellular antibody labeling procedure for monoclonal antibodies to HPV E7. E7 signal intensities are analyzed from the obtained FL1 histograms at logarithmic scale. The FL1 single histogram graph represents the variation in the mean fluorescence intensity (MFI) channel for cells treated with selected compounds compared to cells not incubated with primary antibodies but incubated with secondary, which allows to test for auto-fluorescence, and non-compound treated cells as controls. Non-primary antibody-stained cells are used to set the acquisition parameters to zero. Decrease of the mean fluorescence intensity channel corresponds to a decrease in the expression of HPV16 E7 protein. Degradation of E7 in cells is calculated as percent (%) reduction in MFI(x-Me) using the following formulas: % Drel=(T−C)/T*100; i) relative degradation: % Dad=(T−C)/(T−CHX)*100; ii) adjusted degradation: • Drel=relative degradation, • Dad=adjusted degradation assuming CHX % Drel=100; • T=MFI of non-treated cells; • C=MFI of compound treated cells; • CH=MFI of cycloheximide (CHX) treated cells;
For comparison within one experiment i) the % relative degradation (Drel) is sufficient, whereas for comparison between two or more experiments ii) the adjusted degradation (Dad) is used and CHX steady state is set to a 100% degradation parameter.
1×10^6 freshly seeded CaSki cells (ATCC CRL-7915), are grown in 10 cm diameter cell culture dishes in RPMI1640, 10% FCS medium at 37° C. 5% CO2 overnight and then incubated in the presence of 10 μM Cycloheximide (CHX) 10 μM OC246 or with vehicle alone for four hours at 37° C. 5% CO2. Following this E7 protein is assessed by cytofluorimetric analysis using intracellular HPV16 E7 antibody labeling. […]

[1] = Pharmacokinetics of VSP034 and VSP035 after oral administration of a liposomal formulation; format: in vivo, female Sprague-Dawley rats; details: for AUC(0-inf) / Cmax / MRT inf / Tmax / half-life: female, Sprague-Dawley; for AUC(0-inf): AUC0-inf; for MRT inf: MRT0-inf
Protocol: The pharmacokinetic parameters of VSP034 and VSP035 encapsulated as liposomal formulation were assessed after the administration of a single 100 mg/kg dose by oral gavage to 6 female Sprague-Dawley rats weighting 250 grams (+25 g). The animals were randomized into two experimental groups (Groups 1 and 2), each composed of 3 rats. Rats belonging to group 1 were administered with VSP034 and rats belonging to group 2 were administered with VSP035. Blood was collected at baseline and 15 min, 30 min, 1, 2, 4, 6, 8, and 24 hours after the oral gavage. The rats were sacrificed 24 hours after the dosing. Blood was collected at each timepoint from the caudal vein, with the exception of the last collection (24 hours), which was performed by intracardiac puncture at the moment of sacrifice under isoflurane anesthesia. The animals were weighted immediately before the dosing to assess the proper dose and carefully monitored during the experiment. They were kept in standard housing conditions, meeting the legal requirements for the correct housing of rodents for a period not exceeding the maximum experimental endpoints. Ad libitum access to water and food was allowed. […] Humane endpoints have not been reached. The pharmacokinetic analysis was performed using Microsoft Excel plug-in PK Solver. Pharmacokinetic parameters of two compounds are compared with the software GraphPad Prism ver. 8.0 by Student's t test for unpaired data. A p value <0.05 is considered statistically significant.
Analytical method: Compound analysis was performed following the bioanalytical method as in Test 13. In this study, carbamazepine was used as an internal standard.
Pharmacokinetic analysis: A pharmacokinetic analysis of VSP034 and VSP035 was performed using the Excel plug-in 2.0 PK Solver. The results have been fitted according to a non-compartmental modelling following extravascular administration. Concentration-vs-time curves for VSP034 and VSP035.
The main pharmacokinetic parameters (half-life, t1/2; time to maximum plasma concentration, Tmax; maximum plasma concentration, Cmax, AUC Extrapolated to Infinity, AUC0-inf; mean residence time, MRT; Apparent Volume of Distribution During Terminal Phase, Vz/F; and apparent oral clearance, CL/F) were calculated from the coefficients and exponents of the best-fits by using standard formulae.

[2] = rat, in vivo, po, 100 mg/kg, Mean
[3] = rat, in vivo, po, 100 mg/kg, Median

T1 sequence (P03129 whole entry): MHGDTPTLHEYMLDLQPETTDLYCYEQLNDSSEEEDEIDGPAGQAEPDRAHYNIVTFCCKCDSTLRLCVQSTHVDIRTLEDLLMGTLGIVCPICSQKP

Structure (SMILES)	% Drel (relative degradation) (HPV16 E7 protein; 10 μM, four hours) [%]	% Dab (adjusted degradation) (HPV16 E7 protein; 10 μM, four hours, CHX set to 100) [%]	MFI (mean fluorescence intensity) of E7 signal (HPV16 E7 protein; 10 μM, four hours, vehicle T 8.06)	% Dad (HPV16 E7 protein) [%]	AUC(0-inf) [1, 2] [ng·h/mL]	AUC(0-inf) [1, 3] [ng·h/mL]	Cmax [1, 2] [ng/mL]	Cmax [1, 3] [ng/mL]	MRT inf [1, 2] [h]	MRT inf [1, 3] [h]	Tmax [1, 2] [h]	Tmax [1, 3] [h]	half-life ([1]; rat, in vivo, po, 100 mg/kg, t1/2, Mean) [h]	half-life ([1]; rat, in vivo, po, 100 mg/kg, t1/2, Median) [h]	Vz/F, Mean ([1]; rat, in vivo, po, 100 mg/kg) [L/g]	Vz/F, Median ([1]; rat, in vivo, po, 100 mg/kg) [L/g]	condition of the rats after administration of the liposomal formulation ([1]; single 100 mg/kg oral gavage, observed 24 hours)	AUC relative to that of VSP034 ([1]; single 100 mg/kg oral, significantly higher) [fold]
Cc1ccc(CN2C(=O)c3ccccc3[C@H](C(=O)Nc3cccc(N4CCN(C)CC4)c3)[C@@H]2c2ccc(C(F)(F)F)cc2)cc1 [OC246, N-[3-(4-methylpiperazin-1-yl)phenyl]-2-[(4-methylphenyl)methyl]-1-oxo-3-[4-(trifluoromethyl)phenyl]-1,2,3,4-tetrahydroisoquinoline-4-carboxamide]	43.79	55.59	4.53	56														
CN1CCC(CN2C(=O)c3ccccc3[C@H](C(=O)Nc3cccc(N4CCN(C)CC4)c3)[C@H]2c2ccc(C(F)(F)F)cc2)CC1 [VSP035, (3S,4S)-N-[3-(4-methylpiperazin-1-yl)phenyl]-2-[(1-methylpiperidin-4-yl)methyl]-1-oxo-3-[4-(trifluoromethyl)phenyl]-1,2,3,4-tetrahydroisoquinoline-4-carboxamide]					2230	1480	246	277	6.83	6.59	2.42	1	4.43	3.57	0.291	0.278	did not show any sign of suffering or abnormal behavior	4
CN1CCC(CN2C(=O)c3ccccc3[C@@H](C(=O)Nc3cccc(N4CCN(C)CC4)c3)[C@@H]2c2ccc(C(F)(F)F)cc2)CC1 (racemic) [OC974, (3R,4R)- and (3S,4S)-N-[3-(4-methylpiperazin-1-yl)phenyl]-2-[(1-methylpiperidin-4-yl)methyl]-1-oxo-3-[4-(trifluoromethyl)phenyl]-3,4-dihydroisoquinoline-4-carboxamide]				68														

— US12630523B2, “Isoquinoline derivatives for use as antiviral and antitumour agents” (priority 2021, dated 2026)
